Assay results reported in US10793599B2, “MPHOSPH1-derived peptide, and vaccine including same” (OncoTherapy Science, Inc., priority 2015, dated 2020).
“Also recorded” adds a separate entry of the source.

How the values were obtained:
[1] = test system: peptide-pulsed C1R-A33; test: In vitro CTL induction, IFN-gamma ELISPOT assay (HLA-A*33:03); assay type: cell-based, human; settings: CD8 positive T cells of HLA-A*33:03-positive donors after three stimulations with peptide-pulsed DCs; against peptide-pulsed C1R-A33; listed as MPHOSPH1-A33-9-608
Method: Monocyte-derived dendritic cells (DCs) were used as the antigen-presenting cell to induce a specific cytotoxic T lymphocyte (CTL) response against peptides presented on human leukocyte antigens (HLAs). As already reported in literatures, DCs were generated in vitro (Nakahara S et al., Cancer Res 2003, 63(14): 4112-8). Specifically, peripheral-blood mononuclear cells (PBMCs) collected from healthy volunteers (HLA-A*33:03-positive) with the Ficoll-Paque plus solution (Pharmacia) were seeded in plastic tissue culture dishes (Corning) to let the monocytes in the PBMCs adhere to the dishes. This was cultured in the presence of 1000 IU/ml granulocyte macrophage colony-stimulating factor (R&D System) and 1000 IU/ml interleukin (IL)-4 (R&D System) for seven days. An AIM-V medium (Invitrogen) containing 5% inactivated AB-type serum (ABS) was used as the medium. DCs that were induced to differentiate from monocytes using the cytokines were pulsed with 20 micro-g/ml of each synthesized peptide (37 degrees C., three hours). Peptide pulsing was carried out in an AIM-V medium containing 3 micro-g/ml beta 2-microglobulin. These peptide-pulsed DCs were inactivated by X-ray irradiation (20 Gy), mixed in a 1:20 ratio with autologous CD8 positive T cells obtained by positive selection using the CD8 Positive Isolation Kit (Invitrogen) (1.5×10^4 DCs and 3×10^5 CD8 positive T cells), and cultured in a 48-well plate (Corning). Each well contained 0.5 ml of the 5% ABS/AIM-V medium, and IL-7 (R&D System) was added there (final concentration: 10 ng/ml). Two days after the start of the culture, IL-2 (Novartis) was added (final concentration: 20 IU/ml). On day 7 and day 14 of culture, the CD8 positive T cells were further stimulated with peptide-pulsed DCs. The DCs were prepared at the time of use by the same method as above. After day 21 (after three DC stimulations), IFN-gamma production against the peptide-pulsed C1R-A33 was confirmed using human interferon (IFN)-gamma enzyme-linked immunospot (ELISPOT) assay (Tanaka H et al., Br J Cancer 2001, 84(1): 94-9; Umano Y et al., Br J Cancer 2001, 84(8): 1052-7: Uchida N et al., Clin Cancer Res 2004, 10(24): 8577-86; Suda T et al., Cancer Sci 2006, 97(5): 411-9; Watanabe T et al., Cancer Sci 2005, 96(8): 498-506).
(§1) Peptide-pulsed C1R-A33 (1×10^4 cells/well) was prepared as the target cell. The IFN-gamma ELISPOT assay and IFN-gamma ELISA assay were performed according to the assay kit manufacturer's manual.

[2] = test system: peptide-pulsed C1R-A33; test: IFN-gamma ELISA of CTL lines and CTL clones (HLA-A*33:03); assay type: cell-based, human; settings: listed as MPHOSPH1-A33-9-608
Method: CTLs were propagated using methods similar to those reported by Riddell et al. (Walter E A et al., N Engl J Med 1995, 333(16): 1038-44; Riddell S R et al., Nat Med 1996, 2(2): 216-23). The CTLs were cultured in 25 ml 5% ABS/AIM-V medium together with two types of Mitomycin C-treated human B lymphoblastoid cell lines (5×10^6 cells/25 ml medium each) and an anti-CD3 antibody (final concentration: 40 ng/ml). On the day after beginning of the culturing, IL-2 (final concentration: 120 IU/ml) was added to the culture. On days 5, 8 and 11, the medium was changed to a 5% ABS/AIM-V medium containing IL-2 (final concentration: 30 IU/ml) (Tanaka H et al., Br J Cancer 2001, 84(1): 94-9; Umano Y et al., Br J Cancer 2001, 84(8): 1052-7; Uchida N et al., Clin Cancer Res 2004, 10(24): 8577-86; Suda T et al., Cancer Sci 2006, 97(5): 411-9; Watanabe T et al., Cancer Sci 2005, 96(8): 498-506).
After induction of CTLs in vitro, the CTLs were seeded onto 96 round-bottomed microtiter plates (Nalge Nunc International) at 1 cell/well or 10 cells/well. The CTLs were cultured with two types of Mitomycin C-treated human B lymphoblastoid cell lines (1×10^4 cells/well each) in a total of 150 micro-l/well 5% ABS/AIM-V medium with an anti-CD3 antibody (final concentration: 30 ng/ml) and IL-2 (final concentration: 125 IU/ml). Ten days later, 50 micro-l 5% ABS/AIM-V medium containing 500 IU/ml IL-2 was added to the culture.
as §1

[3] = test system: COS7 cells expressing MPHOSPH1 and HLA-A*33:03; test: IFN-gamma production of CTL clone against target cells expressing MPHOSPH1 and HLA-A*33:03; assay type: cell-based, African green monkey
Method: as §1
A cDNA encoding the MPHOSPH1 or HLA-A*33:03 gene was amplified by PCR. The PCR-amplified product was each incorporated into an expression vector. Either or both of the MPHOSPH1 gene-expressing vector and the HLA-A*33:03 gene-expressing vector were introduced into COS7, which is a cell line negative for HLA, using Lipofectamine 2000 (Invitrogen). On the day after gene introduction, COS7 cells were detached and harvested using versene (Invitrogen), and used as the target cell for confirmation of IFN-gamma production (5×10^4 cells/well).

What does the source list for “EFTQYWAQR (a peptide derived from MPHOSPH1) [SEQ ID NO: 118]”?
peptide-specific IFN-gamma production (ELISPOT) [1]: Peptide-specific IFN-gamma production was observed; peptide-specific IFN-gamma production of CTL clone (ELISA) ([2]; CTL clone by limiting dilution, against C1R-A33 pulsed with the peptide): showed a peptide-specific IFN-gamma production; IFN-gamma production by CTL line (ELISA) ([2]; CTL line against C1R-A33 pulsed with the peptide): CTL lines that produce IFN-gamma in a peptide-specific manner were established; also recorded: observed; IFN-gamma production of peptide-specific CTL clone ([3]; against COS7 cells expressing both MPHOSPH1 and HLA-A*33:03): showed IFN-gamma production; IFN-gamma production of peptide-specific CTL clone ([3]; against negative control COS7 cells expressing either one of MPHOSPH1 and HLA-A*33:03, listed as MPHOSPH1-A33-9-608): a significant IFN-gamma production was not shown; also recorded: a significant IFN-gamma production was not observed
